Measurements taken from patent US9695155B2, “Herbicidal substituted pyrimidinyloxy benzene compounds” (E. I. DU PONT DE NEMOURS AND COMPANY, priority 2013, dated 2017).

Tests used:
morningglory = experiment: Test E preemergence; assay type: in vivo, Ipomoea coccinea; details: for Morningglory plant response rating: scale 0 to 100 (0 no effect, 100 complete control)
Text: (§1) Seeds of plant species selected from corn (Zea mays), soybean (Glycine max), velvetleaf (Abutilon theophrasti), lambsquarters (Chenopodium album), wild poinsettia (Euphorbia heterophylla), palmer pigweed (Amaranthus palmeri), waterhemp (common waterhemp, Amaranthus rudis), surinam grass (Brachiaria decumbens), large (Lg) crabgrass (Digitaria sanguinalis), Brazilian crabgrass (Digitaria horizontalis), fall panicum (Panicum dichotomiflorum), giant foxtail (Setaria faberii), green foxtail (Setaria viridis), goosegrass (Eleusine indica), johnsongrass (Sorghum halepense), ragweed (common ragweed, Ambrosia elatior), barnyardgrass (Echinochloa crus-galli), sandbur (southern sandbur, Cenchrus echinatus), arrowleaf sida (Sida rhombifolia), Italian ryegrass (Lolium multiflorum), dayflower (Virginia (VA) dayflower, Commelina virginica), field bindweed (Convolvulus arvensis), morningglory (Ipomoea coccinea), nightshade (eastern black nightshade, Solanum ptycanthum), kochia (Kochia scoparia), yellow nutsedge (Cyperus esculentus), cocklebur (common cocklebur, Xanthium strumarium), smartweed (ladysthumb smartweed, and hairy beggarticks (Bidens pilosa), were planted into a silt loam soil and treated preemergence with test chemicals formulated in a non-phytotoxic solvent mixture which included a surfactant.
(§2) At the same time, plants from these crop and weed species and also horseweed (Canada horseweed, Conyza canadensis), waterhemp_RES1, (ALS & Triazine resistant common waterhemp, Amaranthus rudis), and waterhemp_RES2, (ALS & HPPD resistant common waterhemp, Amaranthus rudis) were planted in pots containing Redi-Earth® planting medium (Scotts Company, 14111 Scottslawn Road, Marysville, Ohio 43041) comprising spaghnum peat moss, vermiculite, wetting agent and starter nutrients were treated with postemergence applications of test chemicals formulated in the same manner. Plants ranged in height from 2 to 18 cm for postemergence treatments (1- to 4-leaf stage). Treated plants and controls were maintained in a greenhouse for 14 to 21 days, after which time all species were compared to controls and visually evaluated. Plant response ratings, summarized in Table E, are based on a scale of 0 to 100 where 0 is no effect and 100 is complete control. A dash (-) response means no test result.

waterhemp = experiment: Test E preemergence; assay type: in vivo, Amaranthus rudis; details: for Waterhemp plant response rating: scale 0 to 100 (0 no effect, 100 complete control)
Text: as §1, §2

giant foxtail = experiment: Test E preemergence; assay type: in vivo, Setaria faberii; details: for Foxtail, Giant plant response rating: scale 0 to 100 (0 no effect, 100 complete control)
Text: as §1, §2

palmer pigweed = experiment: Test E preemergence; assay type: in vivo, Amaranthus palmeri; details: for Pigweed, Palmer plant response rating: scale 0 to 100 (0 no effect, 100 complete control)
Text: as §1, §2

soybean = experiment: Test E preemergence; assay type: in vivo, Glycine max; details: for Soybean plant response rating: scale 0 to 100 (0 no effect, 100 complete control)
Text: as §1, §2

Brazilian crabgrass [1] = experiment: Test E preemergence; assay type: in vivo, Digitaria horizontalis; details: for Crabgrass, Brazil plant response rating: scale 0 to 100 (0 no effect, 100 complete control)
Text: as §1, §2

ragweed = experiment: Test E preemergence; assay type: in vivo, Ambrosia elatior; details: for Ragweed plant response rating: scale 0 to 100 (0 no effect, 100 complete control)
Text: as §1, §2

dayflower = experiment: Test E preemergence; assay type: in vivo, Commelina virginica; details: for Dayflower, VA plant response rating: scale 0 to 100 (0 no effect, 100 complete control)
Text: as §1, §2

Italian ryegrass [2] = experiment: Test E preemergence; assay type: in vivo, Lolium multiflorum; details: for Ryegrass, Italian plant response rating: scale 0 to 100 (0 no effect, 100 complete control)
Text: as §1, §2

wild poinsettia = experiment: Test E preemergence; assay type: in vivo, Euphorbia heterophylla; details: for Poinsettia, Wild plant response rating: scale 0 to 100 (0 no effect, 100 complete control)
Text: as §1, §2

velvetleaf = experiment: Test E preemergence; assay type: in vivo, Abutilon theophrasti; details: for Velvetleaf plant response rating: scale 0 to 100 (0 no effect, 100 complete control)
Text: as §1, §2

sandbur = experiment: Test E preemergence; assay type: in vivo, Cenchrus echinatus; details: for Sandbur plant response rating: scale 0 to 100 (0 no effect, 100 complete control)
Text: as §1, §2

rice = experiment: Test C flooded paddy test; assay type: in vivo, Oryza sativa; details: Flood, scale 0 to 100 (0 no effect, 100 complete control), 13 to 15 days
How it was run: (§3)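 Flooded 3 cm over soil; compound into paddy water; depth kept constant. Greenhouse 13–15 d.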

sedge, umbrella = experiment: Test C flooded paddy test; assay type: in vivo, Cyperus difformis; details: Flood, scale 0 to 100 (0 no effect, 100 complete control), 13 to 15 days
How it was run: as §3

barnyardgrass = experiment: Test C flooded paddy test; assay type: in vivo, Echinochloa crus-galli; details: Flood, scale 0 to 100 (0 no effect, 100 complete control), 13 to 15 days
How it was run: as §3

field bindweed = experiment: Test E postemergence; assay type: in vivo, Convolvulus arvensis
Text: as §1, §2

Italian ryegrass [3] = experiment: Test E postemergence; assay type: in vivo, Lolium multiflorum
Text: as §1, §2

Brazilian crabgrass [4] = experiment: Test E postemergence; assay type: in vivo, Digitaria horizontalis
How it was run: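 Response was scored visually on a 0-100 scale (100 = complete control) versus controls after 14 to 21 days in the greenhouse. Test chemicals, formulated with surfactant in a non-phytotoxic solvent mixture, had been applied preemergence to seeds in silt loam soil or postemergence to 1- to 4-leaf plants in potting medium.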

[5] = 125 g ai/ha, scale 0 to 100, 0 no effect, 100 complete control
[6] = Postemergence, 31 g ai/ha, scale 0 to 100
[7] = Postemergence, 62 g ai/ha, scale 0 to 100
[8] = Postemergence, 125 g ai/ha, scale 0 to 100
[9] = postemergence, 8 g ai/ha, scale 0 to 100, 0 no effect, 100 complete control
[10] = postemergence, 16 g ai/ha, scale 0 to 100, 0 no effect, 100 complete control

Cc1cnc(Oc2cccc(C#N)c2-n2cc(C#N)cn2)nc1 [Compound 90]
65: Plant response rating, Pigweed, Palmer (palmer pigweed; [5])
20: Morningglory plant response rating (morningglory; 62 g ai/ha) | Waterhemp plant response rating (waterhemp; 62 g ai/ha) | Crabgrass, Brazil plant response rating (Brazilian crabgrass [1]; 31 g ai/ha) | Velvetleaf plant response rating (velvetleaf; 31 g ai/ha)
100: Plant response rating, Waterhemp (waterhemp; [5])
85: Plant response rating, Velvetleaf (velvetleaf; [5])
0: Morningglory plant response rating (morningglory; 16 g ai/ha) | Morningglory plant response rating (morningglory; 31 g ai/ha) | Waterhemp plant response rating (waterhemp; 16 g ai/ha) | Waterhemp plant response rating (waterhemp; 31 g ai/ha) | Foxtail, Giant plant response rating (giant foxtail; 16 g ai/ha) | Foxtail, Giant plant response rating (giant foxtail; 31 g ai/ha) | Pigweed, Palmer plant response rating (palmer pigweed; 16 g ai/ha) | Pigweed, Palmer plant response rating (palmer pigweed; 31 g ai/ha) | Pigweed, Palmer plant response rating (palmer pigweed; 62 g ai/ha) | Crabgrass, Brazil plant response rating (Brazilian crabgrass [1]; 16 g ai/ha) | Ragweed plant response rating (ragweed; 16 g ai/ha) | Dayflower, VA plant response rating (dayflower; 16 g ai/ha) | Dayflower, VA plant response rating (dayflower; 31 g ai/ha) | Plant response rating, Dayflower, VA (dayflower; [5]) | Ryegrass, Italian plant response rating (Italian ryegrass [2]; 16 g ai/ha) | Ryegrass, Italian plant response rating (Italian ryegrass [2]; 31 g ai/ha) | Ryegrass, Italian plant response rating (Italian ryegrass [2]; 62 g ai/ha) | Plant response rating, Ryegrass, Italian (Italian ryegrass [2]; [5]) | Velvetleaf plant response rating (velvetleaf; 16 g ai/ha) | Sandbur plant response rating (sandbur; 16 g ai/ha) | Sandbur plant response rating (sandbur; 31 g ai/ha) | Sandbur plant response rating (sandbur; 62 g ai/ha) | Plant response rating, Sandbur (sandbur; [5])
50: Plant response rating, Foxtail, Giant (giant foxtail; [5]) | Crabgrass, Brazil plant response rating (Brazilian crabgrass [1]; 62 g ai/ha) | Ragweed plant response rating (ragweed; 31 g ai/ha) | Ragweed plant response rating (ragweed; 62 g ai/ha)
60: Velvetleaf plant response rating (velvetleaf; 62 g ai/ha)
70: Poinsettia, Wild plant response rating (wild poinsettia; 62 g ai/ha)
30: Soybean plant response rating (soybean; 62 g ai/ha)
80: Plant response rating, Crabgrass, Brazil (Brazilian crabgrass [1]; [5])
35: Plant response rating, Morningglory (morningglory; [5]) | Plant response rating, Soybean (soybean; [5]) | Poinsettia, Wild plant response rating (wild poinsettia; 31 g ai/ha)
10: Poinsettia, Wild plant response rating (wild poinsettia; 16 g ai/ha)
75: Plant response rating, Ragweed (ragweed; [5]) | Plant response rating, Poinsettia, Wild (wild poinsettia; [5])
15: Foxtail, Giant plant response rating (giant foxtail; 62 g ai/ha) | Soybean plant response rating (soybean; 31 g ai/ha)

FC(F)(F)c1cnn(-c2c(Br)cccc2Oc2ncc(Cl)cn2)c1 [Compound 191]
60: Plant response rating, Sedge, Umbrella (sedge, umbrella; 62 g ai/ha)
40: Plant response rating, Sedge, Umbrella (sedge, umbrella; 31 g ai/ha) | Plant response rating, Field Bindweed (field bindweed; [7]) | Plant response rating, Field Bindweed (field bindweed; [10])
0: Plant response rating, Rice (rice; 31 g ai/ha) | Plant response rating, Rice (rice; 62 g ai/ha) | Plant response rating, Rice (rice; 125 g ai/ha) | Plant response rating, Rice (rice; 250 g ai/ha) | Plant response rating, Barnyardgrass (barnyardgrass; 31 g ai/ha) | Plant response rating, Barnyardgrass (barnyardgrass; 62 g ai/ha) | Plant response rating, Barnyardgrass (barnyardgrass; 125 g ai/ha) | Plant response rating, Ryegrass, Italian (Italian ryegrass [3]; [6]) | Plant response rating, Ryegrass, Italian (Italian ryegrass [3]; [7]) | Plant response rating, Ryegrass, Italian (Italian ryegrass [3]; [8]) | Plant response rating, Ryegrass, Italian (Italian ryegrass [3]; [9]) | Plant response rating, Ryegrass, Italian (Italian ryegrass [3]; [10])
98: Plant response rating, Sedge, Umbrella (sedge, umbrella; 250 g ai/ha)
85: Plant response rating, Sedge, Umbrella (sedge, umbrella; 125 g ai/ha)
20: Plant response rating, Barnyardgrass (barnyardgrass; 250 g ai/ha) | Plant response rating, Field Bindweed (field bindweed; [9]) | Plant response rating, Crabgrass, Brazil (Brazilian crabgrass [4]; [8])
10: Plant response rating, Crabgrass, Brazil (Brazilian crabgrass [4]; [6]) | Plant response rating, Crabgrass, Brazil (Brazilian crabgrass [4]; [7]) | Plant response rating, Crabgrass, Brazil (Brazilian crabgrass [4]; [9]) | Plant response rating, Crabgrass, Brazil (Brazilian crabgrass [4]; [10])
50: Plant response rating, Field Bindweed (field bindweed; [6]) | Plant response rating, Field Bindweed (field bindweed; [8])
